The text below walks through data of patent US8178506B2, “Oligomeric compounds and compositions for use in modulation of small non-coding RNAs” (Regulus Therapeutics Inc., priority 2003, dated 2012).

In the oligonucleotide strings, read from the 5' end, every base follows the letter of its sugar. An asterisk marks phosphorothioate; unmarked linkages are phosphodiester. Other units and linkages are bracketed, terminal groups are in braces. A string of capitals states the bases alone. e = 2'-O-(2-methoxyethyl) (MOE); [5mC] = 5-methylcytosine

What all share (format): cell-based, human
One data set relates to adipocytes. As to the kind of experiment: Triglyceride accumulation assay in adipocytes. How it is done: The triglyceride accumulation assay measures the synthesis of triglyceride by adipocytes. Triglyceride accumulation is measured using the Infinity™ Triglyceride reagent kit (Sigma-Aldrich, St. Louis, Mo.). On day nine post-transfection, cells are washed and lysed at room temperature, and the triglyceride assay reagent is added. Triglyceride accumulation is measured based on the amount of glycerol liberated from triglycerides by the enzyme lipoprotein lipase. Liberated glycerol is phosphorylated by glycerol kinase, and hydrogen peroxide is generated during the oxidation of glycerol-1-phosphate to dihydroxyacetone phosphate by glycerol phosphate oxidase. Horseradish peroxidase (HRP) uses H2O2 to oxidize 4-aminoantipyrine and 3,5 dichloro-2-hydroxybenzene sulfonate to produce a red-colored dye. Dye absorbance, which is proportional to the concentration of glycerol, is measured at 515 nm using an UV spectrophotometer. Glycerol concentration is calculated from a standard curve for each assay, and data are normalized to total cellular protein as determined by a Bradford assay (Bio-Rad Laboratories, Hercules, Calif.).
An increase in triglyceride content is another well-established marker for adipocyte differentiation. The triglyceride accumulation assay measures the synthesis of triglyceride by adipocytes. Triglyceride accumulation was measured using the Infinity™ Triglyceride reagent kit (Sigma-Aldrich, St. Louis, Mo.). Human white preadipocytes (Zen-Bio Inc., Research Triangle Park, N.C.) were grown in preadipocyte media (ZenBio Inc.). One day before transfection, 96-well plates were seeded with 3000 cells/well. Cells were transfected according to standard published procedures with 250 nM oligomeric compound in LIPOFECTIN™ (Invitrogen Corporation, Carlsbad, Calif.) (Monia et al., J. Biol. Chem. 1993 268(19):14514-22). Oligomeric compounds were tested in triplicate on each 96-well plate, and the effects of TNF-α, a positive drug control that inhibits adipocyte differentiation, were also measured in triplicate. Negative and transfectant-only controls may be measured up to six times per plate. After the cells have reached confluence (approximately three days), they were exposed to differentiation media (Zen-Bio, Inc.) containing a PPAR-γ agonist, IBMX, dexamethasone, and insulin for three days. Cells were then fed adipocyte media (Zen-Bio, Inc.), which was replaced at 2 to 3 day intervals. […] Triglyceride accumulation was measured based on the amount of glycerol liberated from triglycerides by the enzyme lipoprotein lipase. Liberated glycerol is phosphorylated by glycerol kinase, and hydrogen peroxide is generated during the oxidation of glycerol-1-phosphate to dihydroxyacetone phosphate by glycerol phosphate oxidase. Horseradish peroxidase (HRP) uses H2O2 to oxidize 4-aminoantipyrine and 3,5 dichloro-2-hydroxybenzene sulfonate to produce a red-colored dye. Dye absorbance, which is proportional to the concentration of glycerol, was measured at 515 nm using an UV spectrophotometer. Glycerol concentration was calculated from a standard curve for each assay, and data were normalized to total cellular protein as determined by a Bradford assay (Bio-Rad Laboratories, Hercules, Calif.). Results are expressed as a percent±standard deviation relative to transfectant-only control.

A further data set relates to aP2. As to the kind of experiment: aP2 mRNA expression in adipocytes (real-time PCR). Particulars: for AP2 mRNA: differentiating adipocytes, control = treatment with ISIS 342673; for aP2 mRNA: differentiating adipocytes transfected with oligomeric compound, Table 75. As to the method: (§1) Expression of the four hallmark genes, HSL, aP2, Glut4, and PPARγ, is also measured in adipocytes transfected with oligomeric compounds of the invention. Cells are lysed on day nine post-transfection and total RNA is harvested. The amount of total RNA in each sample is determined using a Ribogreen Assay (Invitrogen Life Technologies, Carlsbad, Calif.).
(§2) For assaying adipocyte differentiation, expression of the four hallmark genes, HSL, aP2, Glut4, and PPARγ, as well as triglyceride (TG) accumulation and leptin secretion were measured in adipocytes transfected with the uniform 2′-MOE phosphorothioate (PS) oligomeric compounds previously described. Cells are lysed on day nine post-transfection, in a guanadinium-containing buffer and total RNA is harvested. Real-time PCR is performed (Applied Biosystems, Prism 7700) on the total RNA using the following primer/probe sets for the adipocyte differentiation hallmark genes: (aP2): forward 5′-GGTGGTGGAATGCGTCATG-3′ (SEQ ID NO: 746), reverse 5′-[…]-3′ (SEQ ID NO: 747), probe 5′-FAM-[…]-TAMRA-3′ (SEQ ID NO: 748); (Glut4): forward 5′-GGCCTCCGCAGGTTCTG-3′ (SEQ ID NO: 749), reverse 5′-[…]-3′ (SEQ ID NO: 750), probe 5′-FAM-[…]-TAMRA-3′ (SEQ ID NO: 751); (HSL): forward 5′-ACCTGCGCACAATGACACA-3′ (SEQ ID NO: 752), reverse 5′-[…]-3′ (SEQ ID NO: 753), probe 5′-FAM-[…]-TAMRA-3′ (SEQ ID NO: 754); (PPAR-γ): forward 5′-[…]-3′ (SEQ ID NO: 755), reverse 5′-[…]-3′ (SEQ ID NO: 756), probe 5′-FAM-[…]-TAMRA-3′ (SEQ ID NO: 757). The amount of total RNA in each sample is determined using a Ribogreen Assay (Molecular Probes, Eugene, Oreg.), and expression levels of the adipocyte differentiation hallmark genes were normalized to total RNA.
Background: In qPCR the cycle at which signal appears reflects the starting amount.

The subject of a further data set is HSL. As to the kind of experiment: HSL mRNA expression in adipocytes (real-time PCR). How it is done: as §1, §2
For another data set, the system named is Glut4. In words: Glut4 mRNA expression in adipocytes (real-time PCR). As to the method: as §1, §2
For the next data set, the system named is PPARγ. In words: PPARγ mRNA expression in adipocytes (real-time PCR). How it is done: as §1, §2
Setting [1] is: Table 18, differentiating adipocytes, control = treatment with ISIS 342673.
[2] abbreviates: differentiating adipocytes transfected with oligomeric compound, Table 75.
The mark [3] stands for this setting: Table 17, differentiating adipocytes, control = treatment with ISIS 342673.

As for “328101 (antisense eA*eA*eA*e[5mC]*e[5mC]*e[5mC]*e[5mC]*eT*eA*eT*e[5mC]*eA*e[5mC]*eG*eA*eT*eT*eA*eG*e[5mC]*eA) [compound 328101]”, the “TG (triglyceride accumulation)” value with adipocytes (setting [1]) is 108.6 percentage of control; in the data set on adipocytes (setting [2]), 67 percentage of untreated control (UTC). Besides, the “AP2 mRNA” value in the data set with aP2 (Table 18) was 83.2 percentage of control. Also, the “aP2 mRNA” value with aP2 is on record as 83 percentage of untreated control (UTC). For the same substance, the “HSL mRNA” value in the data set with HSL (setting [1]) is recorded as 91.8 percentage of control; in the data set on HSL (setting [2]) it was 78 percentage of untreated control (UTC). The entries for the “GLUT4 mRNA” value in the data set with Glut4 (setting [1]) and in the data set with Glut4 (setting [2]) were 84.7 percentage of control and 57 percentage of untreated control (UTC), respectively. Moreover, the “PPAR gamma mRNA” value is 79.3 percentage of control in the data set with PPARγ (setting [1]) and 70 percentage of untreated control (UTC) in the data set on PPARγ (setting [2]).

In the case of “328107 (antisense e[5mC]*eT*eG*eT*eG*eA*e[5mC]*eT*eT*e[5mC]*eT*e[5mC]*eT*eA*eT*e[5mC]*eT*eG*e[5mC]*e[5mC]*eT) [compound 328107]”, the “TG (triglyceride accumulation)” value is 66.7 percentage of control with adipocytes (setting [1]) and 51 percentage of untreated control (UTC) in the data set with adipocytes (setting [2]). In the data set with aP2 (Table 18), the “AP2 mRNA” value is 67.5 percentage of control. The “aP2 mRNA” value in the data set with aP2 is listed as 68 percentage of untreated control (UTC). Also, the results for the “HSL mRNA” value with HSL (setting [1]) and in the data set with HSL (setting [2]) were 61.0 percentage of control and 55 percentage of untreated control (UTC), respectively. Moreover, the results for the “GLUT4 mRNA” value in the data set with Glut4 (setting [1]) and in the data set on Glut4 (setting [2]) were 72.5 percentage of control and 52 percentage of untreated control (UTC), respectively. For the same substance, the results for the “PPAR gamma mRNA” value in the data set with PPARγ (setting [1]) and with PPARγ (setting [2]) were 79.3 percentage of control and 71 percentage of untreated control (UTC), respectively.

Turning to “328122 (antisense e[5mC]*eA*eA*eA*eA*e[5mC]*eA*eT*eA*eA*eA*eA*eA*eT*e[5mC]*e[5mC]*eT*eT*eG*e[5mC]*eA) [compound 328122]”, the “TG (triglyceride accumulation)” value in the data set on adipocytes (setting [3]) is reported as 78.9 percentage of control; in the data set with adipocytes (setting [2]) it was 97 percentage of untreated control (UTC). Moreover, in the data set on aP2 (Table 17), the “AP2 mRNA” value is 79.3 percentage of control. For the same substance, the “aP2 mRNA” value in the data set with aP2 was 99 percentage of untreated control (UTC). The “HSL mRNA” value in the data set on HSL (setting [3]) was 72.7 percentage of control; with HSL (setting [2]), 89 percentage of untreated control (UTC). Further, the “GLUT4 mRNA” value is on record as 85.9 percentage of control in the data set with Glut4 (setting [3]) and 91 percentage of untreated control (UTC) in the data set on Glut4 (setting [2]). In addition, the “PPAR gamma mRNA” value with PPARγ (setting [3]) was 77.8 percentage of control; in the data set with PPARγ (setting [2]) it was 103 percentage of untreated control (UTC).

As to “328097 (antisense eT*eG*eT*e[5mC]*eA*eG*eA*eT*eA*eA*eA*e[5mC]*eA*eG*eA*eG*eT*eG*eG*eA*eA) [compound 328097]”, the “TG (triglyceride accumulation)” value in the data set with adipocytes (setting [2]) was 65 percentage of untreated control (UTC). For the same substance, in the data set on aP2, the “aP2 mRNA” value is 48 percentage of untreated control (UTC). Also, the “HSL mRNA” value in the data set with HSL (setting [2]) is listed as 54 percentage of untreated control (UTC). Further, in the data set with Glut4 (setting [2]), the “GLUT4 mRNA” value is recorded as 62 percentage of untreated control (UTC). The “PPAR gamma mRNA” value with PPARγ (setting [2]) is 63 percentage of untreated control (UTC).

For “328104 (antisense eT*eA*eT*eG*eA*eT*eA*eG*e[5mC]*eT*eT*e[5mC]*e[5mC]*e[5mC]*e[5mC]*eA*eT*eG*eT*eA*eA) [compound 328104]”, the “TG (triglyceride accumulation)” value in the data set on adipocytes (setting [1]) was 122.6 percentage of control; in the data set on adipocytes (setting [2]) it was 64 percentage of untreated control (UTC). The “AP2 mRNA” value in the data set with aP2 (Table 18) is reported as 102.2 percentage of control. Further, in the data set with aP2, the “aP2 mRNA” value was 94 percentage of untreated control (UTC). Moreover, the “HSL mRNA” value in the data set with HSL (setting [1]) is reported as 98.2 percentage of control; in the data set with HSL (setting [2]), 81 percentage of untreated control (UTC). In addition, the “GLUT4 mRNA” value with Glut4 (setting [1]) was 119.1 percentage of control; in the data set with Glut4 (setting [2]), 83 percentage of untreated control (UTC). The “PPAR gamma mRNA” value is 90.4 percentage of control with PPARγ (setting [1]) and 73 percentage of untreated control (UTC) in the data set on PPARγ (setting [2]).

As for “346914 (AUCUGCACUGUCAGCACUUUA; all 2'-MOE, all phosphorothioate, methylation of C and T or U not given here) [compound 346914]”, in the data set with adipocytes (setting [2]), the “TG (triglyceride accumulation)” value is listed as 41 percentage of untreated control (UTC). Besides, the “aP2 mRNA” value in the data set with aP2 is on record as 48 percentage of untreated control (UTC). The “HSL mRNA” value in the data set with HSL (setting [2]) is on record as 27 percentage of untreated control (UTC). For the same substance, the “GLUT4 mRNA” value with Glut4 (setting [2]) was 16 percentage of untreated control (UTC). The “PPAR gamma mRNA” value with PPARγ (setting [2]) was 41 percentage of untreated control (UTC).

Turning to “328103 (antisense e[5mC]*e[5mC]*e[5mC]*eA*eA*eT*eA*eT*e[5mC]*eA*eA*eA*e[5mC]*eA*eT*eA*eT*e[5mC]*eA) [compound 328103]”, the “TG (triglyceride accumulation)” value in the data set with adipocytes (setting [1]) is on record as 110.2 percentage of control; in the data set with adipocytes (setting [2]), 113 percentage of untreated control (UTC). Also, the “AP2 mRNA” value with aP2 (Table 18) was 83.2 percentage of control. Also, in the data set on aP2, the “aP2 mRNA” value is 96 percentage of untreated control (UTC). Moreover, the results for the “HSL mRNA” value in the data set on HSL (setting [1]) and in the data set on HSL (setting [2]) were 82.5 percentage of control and 87 percentage of untreated control (UTC), respectively. The results for the “GLUT4 mRNA” value in the data set on Glut4 (setting [1]) and in the data set on Glut4 (setting [2]) were 94.3 percentage of control and 86 percentage of untreated control (UTC), respectively. For the same substance, the “PPAR gamma mRNA” value in the data set on PPARγ (setting [1]) is reported as 74.3 percentage of control; in the data set with PPARγ (setting [2]), 83 percentage of untreated control (UTC).

“346907 (AUGUAUGUGGGACGGUAAACCA; all 2'-MOE, all phosphorothioate, methylation of C and T or U not given here) [compound 346907]”: the “TG (triglyceride accumulation)” value in the data set on adipocytes (setting [2]) is recorded as 47 percentage of untreated control (UTC). In addition, the “aP2 mRNA” value in the data set with aP2 is 50 percentage of untreated control (UTC). Besides, the “HSL mRNA” value in the data set with HSL (setting [2]) was 36 percentage of untreated control (UTC). In the data set on Glut4 (setting [2]), the “GLUT4 mRNA” value is given as 37 percentage of untreated control (UTC). For the same substance, in the data set with PPARγ (setting [2]), the “PPAR gamma mRNA” value is recorded as 51 percentage of untreated control (UTC).
